Results as given in ChEMBL document CHEMBL1129455, “Chemistry of the pyrrolo[1,2-alpha]benzimidazole antitumor agents: influence of the 7-substituent on the ability to alkylate DNA and inhibit topoisomerase II” (1996).

Assays:
Format in all cases: functional
Cancer cell lines [1] = assay: concentration to inhibit 100%cancer cell growth and the value is the mean value which was obtained from 60 cancer cell line assay; settings: read-out: Log TGI (converted)
Cancer cell lines [2] = assay: The concentration to cause 50% cancer cell lethality and the value is the mean value which was obtained from 60 cancer cell line assay
Cancer cell lines [3] = assay: concentration to inhibit 50%cancer cell growth and the value is the mean value which was obtained from 60 cancer cell line assay

Row | SMILES | TGI (Cancer cell lines [1]) [nM] | LC50 (Cancer cell lines [2]) [µM] | GI50 (Cancer cell lines [3]) [nM]
1 | O=C1C=C(N2CC2)C(=O)c2c1nc1n2CCC1 | > 100000 | > 100 | > 100000
2 | O=C1C(N2CC2)=CC(=O)c2c1nc1n2CCC1 | 1350 | 5.5 | 363
3 | CC(=O)OC1CCn2c1nc1c2C(=O)C=C(N2CC2)C1=O (configuration not stated) | 1070 | 5.25 | 269
4 | COC1=C(N2CC2)C(=O)c2nc3n(c2C1=O)CCC3 | 2510 | 13.5 | 708
5 | COC1=C(NC(C)=O)C(=O)c2nc3n(c2C1=O)CCC3OC(C)=O (configuration not stated) | 38900 | 74.1 | 18600
6 | CC(=O)NC1=C(C)C(=O)c2c(nc3n2CCC3)C1=O | 3720 | 10.7 | 1450
7 | CC1=C(N2CC2)C(=O)c2nc3n(c2C1=O)CCC3 | 105 | 2.04 | 18.2
8 | CC(=O)NC1=C(C)C(=O)c2c(nc3n2CCC3OC(C)=O)C1=O (configuration not stated) | 4790 | 18.6 | 1580
9 | CC(=O)OC1CCn2c1nc1c2C(=O)C(C)=C(N2CC2)C1=O (configuration not stated) | 31.6 | 0.245 | 12
